Experiments:
Plasma Kallikrein = Plasma Kallikrein (Homo sapiens (Human), UniProt P03952); assay: Determination of related protease inhibition: Plasma Kallikrein (fluorogenic substrate at Km); format: biochemical; details: 25° C., read-out: IC50 (human PKal)
Method: Determination of Related Protease Inhibition
In vitro inhibition of related proteases was determined using an ([…] assay based on standard literature methods (see e.g. Shori et al., Biochem. Pharmacol., 1992, 43, 1209; Bouckaert et al., European Journal of Medicinal Chemistry 110 (2016) 181). Human serine protease enzymes Plasma Kallikrein, KLK1, FXa, Plasmin, Thrombin and Trypsin were assayed for enzymatic activity using an appropriate fluorogenic substrate at Km concentration, FXIa at fixed substrate concentration of 100 μM, and various concentrations of the test compound. Protease activity was measured by monitoring the accumulation of liberated fluorescence from the substrate over […]. The linear rate of fluorescence increase per minute was expressed as percentage (%) activity. IC50 values were calculated as the concentration of inhibitor giving 50% inhibition of the uninhibited enzyme activity (100%).

Human Factor XIIa = Human Factor XIIa (Homo sapiens (Human), UniProt P00748); assay: Determination of FXIIa inhibition (fluorogenic substrate H-DPro-Phe-Arg-AFC, IC50 assay); format: biochemical; details: substrate H-DPro-Phe-Arg-AFC at Km, 25° C.; class scale A-G
Summary of the method: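 IC50 derived from % remaining activity, taken as the linear fluorescence rate over a 5 min read at 25° C. Substrate H-DPro-Phe-Arg-AFC was used at its Km (Michaelis-Menten) with human FXIIa and serial compound dilutions, 25° C.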

Sequence of Plasma Kallikrein (P03952 391-638): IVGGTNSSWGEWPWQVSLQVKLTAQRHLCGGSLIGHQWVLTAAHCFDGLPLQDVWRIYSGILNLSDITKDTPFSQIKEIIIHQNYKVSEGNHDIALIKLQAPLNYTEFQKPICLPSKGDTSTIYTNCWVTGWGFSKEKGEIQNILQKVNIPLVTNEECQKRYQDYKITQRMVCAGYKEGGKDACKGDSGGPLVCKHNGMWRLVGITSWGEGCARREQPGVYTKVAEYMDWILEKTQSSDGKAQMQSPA
Sequence of Plasma Kallikrein (P03952 20-390 partner): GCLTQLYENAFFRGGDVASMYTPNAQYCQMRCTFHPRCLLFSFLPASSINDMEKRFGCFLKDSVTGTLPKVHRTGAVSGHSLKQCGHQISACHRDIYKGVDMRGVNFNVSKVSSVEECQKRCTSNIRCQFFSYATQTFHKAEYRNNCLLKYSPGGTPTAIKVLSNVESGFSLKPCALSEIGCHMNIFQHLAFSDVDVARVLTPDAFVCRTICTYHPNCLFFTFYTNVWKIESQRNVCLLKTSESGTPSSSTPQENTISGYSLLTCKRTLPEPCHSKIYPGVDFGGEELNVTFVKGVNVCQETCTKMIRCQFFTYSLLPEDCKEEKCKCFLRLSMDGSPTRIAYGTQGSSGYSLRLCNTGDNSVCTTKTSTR
Sequence of Human Factor XIIa (P00748 373-615): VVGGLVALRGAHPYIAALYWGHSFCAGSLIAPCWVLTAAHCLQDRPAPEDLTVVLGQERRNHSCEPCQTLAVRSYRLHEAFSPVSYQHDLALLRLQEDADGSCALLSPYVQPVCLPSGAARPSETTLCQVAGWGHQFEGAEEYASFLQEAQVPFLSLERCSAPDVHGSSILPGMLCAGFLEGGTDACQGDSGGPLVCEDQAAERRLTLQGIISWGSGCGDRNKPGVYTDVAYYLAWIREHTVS

| Structure (SMILES) | IC50 (Plasma Kallikrein) [µM] | IC50 (Human Factor XIIa) [µM] |
| --- | --- | --- |
| Nc1nccc2c(NCc3ccc(N4CCn5nccc5C4CO)nc3)cccc12 (centres unmarked) [Example 1268, (5-(5-(((1-aminoisoquinolin-5-yl)amino)methyl)pyridin-2-yl)-4,5,6,7-tetrahydropyrazolo[1,5-a]pyrazin-4-yl)methanol] | > 40 | 3 to 10 |
| CC1c2nccn2CCN1c1ccc(CNc2cccc3c(N)nccc23)cn1 (centres unmarked) [Example 1150, N5-((6-(8-methyl-5,6-dihydroimidazo[1,2-a]pyrazin-7(8H)-yl)pyridin-3-yl)methyl)isoquinoline-1,5-diamine] | > 40 | 0.3 to 1 |
| Nc1nccc2c(NCc3ccc(N4CCn5nccc5C4)nc3)cccc12 [Example 1156, N5-((6-(6,7-dihydropyrazolo[1,5-a]pyrazin-5(4H)-yl)pyridin-3-yl)methyl)isoquinoline-1,5-diamine] | > 40 | 10 to 40 |
| Cc1cnc2n1CCC(COc1cc(CNc3cccc4c(N)nccc34)ccn1)C2 (centres unmarked) [Example 4320, N5-[[2-[(3-methyl-5,6,7,8-tetrahydroimidazo[1,2-a]pyridin-7-yl)methoxy]-4-pyridyl]methyl]isoquinoline-1,5-diamine] | 3 to 10 | 0.1 to 0.3 |
| Nc1ncc(Cl)c2cc(NCc3ccnc(OCC4CCn5ccnc5C4)c3)ccc12 (centres unmarked) [Example 4300, 4-Chloro-N6-[[2-(5,6,7,8-tetrahydroimidazo[1,2-a]pyridin-7-ylmethoxy)-4-pyridyl]methyl]isoquinoline-1,6-diamine] | 10 to 40 | 0.1 to 0.3 |
| CN1CCN(c2cc(CNc3cccc4c(N)nccc34)ccn2)CC1 [Example 4426, 5-N-{[2-(4-methylpiperazin-1-yl)pyridin-4-yl]methyl}isoquinoline-1,5-diamine] | > 40 | 10 to 40 |
| Cc1cnc2n1CCC(COc1cc(CNc3cccc4c(N)nccc34)ccn1)C2 (single isomer, unassigned) [Example 4445, (R*)-N5-((2-((3-methyl-5,6,7,8-tetrahydroimidazo[1,2-a]pyridin-7-yl)methoxy)pyridin-4-yl)methyl)isoquinoline-1,5-diamine] | 3 to 10 | 0.1 to 0.3 |
| Cc1c[nH]c2nccc(NCc3ccc(NCC4CCN(C)CC4)nc3)c12 [Example 1226, 3-methyl-N-((6-(((1-methylpiperidin-4-yl)methyl)amino)pyridin-3-yl)methyl)-1H-pyrrolo[2,3-b]pyridin-4-amine] | > 100 | 3 to 10 |
| Nc1ncc(Cl)c2cc(NCc3ccc(N4CC5(CC(O)c6nccn65)C4)nc3)ccc12 (centres unmarked) [Example 1270, 1-(5-(((1-amino-4-chloroisoquinolin-6-yl)amino)methyl)pyridin-2-yl)-6′,7′-dihydrospiro[azetidine-3,5′-pyrrolo[1,2-a]imidazol]-7′-ol] | > 40 | 10 to 40 |
| CN1CCC(COc2cc(CNc3ccc(N(C)C)nn3)ccn2)CC1 [Example 4458, N3,N3-dimethyl-N6-((2-((1-methylpiperidin-4-yl)methoxy)pyridin-4-yl)methyl)pyridazine-3,6-diamine] | > 100 | – |
| CN1CCC(CNc2ccc(CNc3cc4c(=O)[nH]ccn4c3)cn2)CC1 [Example 1199, 7-(((6-(((1-methylpiperidin-4-yl)methyl)amino)pyridin-3-yl)methyl)amino)pyrrolo[1,2-a]pyrazin-1(2H)-one] | > 100 | – |
| COC(=O)c1cc2c(NCc3ccc(NCC4CCN(C)CC4)nc3)ccnc2[nH]1 [Example 1247, methyl 4-(((6-(((1-methylpiperidin-4-yl)methyl)amino)pyridin-3-yl)methyl)amino)-1H-pyrrolo[2,3-b]pyridine-2-carboxylate] | > 100 | – |
| CC(=O)c1cncc(NCc2ccnc(OCC3CCN(C)CC3)c2)c1 [Example 4455] | > 100 | – |
| CN1CCC(CNc2ccc(CNc3nc4ccccc4n3C)cn2)CC1 [Example 1192, 1-methyl-N-((6-(((1-methylpiperidin-4-yl)methyl)amino)pyridin-3-yl)methyl)-1H-benzo[d]imidazol-2-amine] | > 100 | – |
| Nc1ncc(Cl)c2cc(NCc3ccc(N4CCn5nccc5C4)nc3)ccc12 [Example 1157, 4-chloro-N6-((6-(6,7-dihydropyrazolo[1,5-a]pyrazin-5(4H)-yl)pyridin-3-yl)methyl)isoquinoline-1,6-diamine] | > 40 | – |

Now from value to compound:

| IC50 (Plasma Kallikrein) [µM] | IC50 (Human Factor XIIa) [µM] | Structure (SMILES) |
| --- | --- | --- |
| > 40 | 10 to 40 | Nc1ncc(Cl)c2cc(NCc3ccc(NCCc4nccn4C(F)F)nc3)ccc12 [Example 1182, 4-chloro-N6-((6-((2-(1-(difluoromethyl)-1H-imidazol-2-yl)ethyl)amino)pyridin-3-yl)methyl)isoquinoline-1,6-diamine] |
| 3 to 10 | 1 to 3 | Nc1nccc2cc(NCc3ccnc(OCC4CCn5ccnc5C4)c3)ncc12 (centres unmarked) [Example 4429, N6-[[2-(5,6,7,8-tetrahydroimidazo[1,2-a]pyridin-7-ylmethoxy)-4-pyridyl]methyl]-2,7-naphthyridine-1,6-diamine] |
| > 40 | 1 to 3 | Nc1ncc(Cl)c2cc(NCc3ccc(OC4CCn5ccnc5C4)nc3)ccc12 (centres unmarked) [Example 1050, 4-chloro-6-N-[(6-{5H,6H,7H,8H-imidazo[1,2-a]pyridin-7-yloxy}pyridin-3-yl)methyl]isoquinoline-1,6-diamine] |
| > 40 | 10 to 40 | Nc1ncc(Cl)c2cc(NCc3cnc(NCCC(=O)N4CCCC4)nc3)ccc12 [Example 1040, 3-[(5-{[(1-amino-4-chloroisoquinolin-6-yl)amino]methyl}pyrimidin-2-yl)amino]-1-(pyrrolidin-1-yl)propan-1-one] |
| 3 to 10 | 0.3 to 1 | Cc1cn2c(n1)CC(COc1cc(CNc3cccc4c(N)nccc34)ccn1)CC2 (single isomer, unassigned) [Example 4447, (R*)-N5-((2-((2-methyl-5,6,7,8-tetrahydroimidazo[1,2-a]pyridin-7-yl)methoxy)pyridin-4-yl)methyl)isoquinoline-1,5-diamine] |
| > 40 | 1 to 3 | Nc1nccc2c(NCc3ccc(N4CCn5cnnc5C4)nc3)cccc12 [Example 1276, N5-((6-(5,6-dihydro-[1,2,4]triazolo[4,3-a]pyrazin-7(8H)-yl)pyridin-3-yl)methyl)isoquinoline-1,5-diamine] |
| > 40 | 40 to 100 | CN1CCC(CNc2ccc(CNc3cnc4nccnc4c3)cn2)CC1 [Example 1189, N-((6-(((1-methylpiperidin-4-yl)methyl)amino)pyridin-3-yl)methyl)pyrido[2,3-b]pyrazin-7-amine] |
| > 40 | 10 to 40 | Cc1n[nH]c2c1CCC2Nc1cc(CNc2ccc3c(N)ncc(Cl)c3c2)ccn1 (centres unmarked) [Example 4440, 4-chloro-N6-((2-((3-methyl-1,4,5,6-tetrahydrocyclopenta[c]pyrazol-6-yl)amino)pyridin-4-yl)methyl)isoquinoline-1,6-diamine] |
| > 40 | 3 to 10 | CC(C)N1CCC(CN(CCCO)C(=O)c2cccc(CNc3cccc4c(N)nccc34)c2)CC1 [Example 5441, 3-(((1-aminoisoquinolin-5-yl)amino)methyl)-N-(3-hydroxypropyl)-N-((1-isopropylpiperidin-4-yl)methyl)benzamide] |
| > 40 | 10 to 40 | Nc1ncc(Cl)c2cc(NCc3cccc(CC(=O)N4CCn5ccnc5C4)c3)ccc12 [Example 5442, 2-(3-(((1-amino-4-chloroisoquinolin-6-yl)amino)methyl)phenyl)-1-(5,6-dihydroimidazo[1,2-a]pyrazin-7(8H)-yl)ethan-1-one] |
| > 40 | 10 to 40 | Nc1nccc2c(NCc3ccc(NCCc4nccn4C(F)F)nc3)cccc12 [Example 1181, N5-((6-((2-(1-(difluoromethyl)-1H-imidazol-2-yl)ethyl)amino)pyridin-3-yl)methyl)isoquinoline-1,5-diamine] |
| > 40 | 0.1 to 0.3 | Nc1ncc(Cl)c2cc(NCc3ccnc(NCC4CCn5ccnc5C4)c3)ccc12 (centres unmarked) [Example 4303, 4-chloro-6-N-{[2-({5H,6H,7H,8H-imidazo[1,2-a]pyridin-7-ylmethyl}amino)pyridin-4-yl]methyl}isoquinoline-1,6-diamine] |
| > 100 | 40 to 100 | CN1CCC(CNc2ccc(CNc3ccc4cncc(Cl)c4c3)cn2)CC1 [Example 1188, 4-chloro-N-((6-(((1-methylpiperidin-4-yl)methyl)amino)pyridin-3-yl)methyl)isoquinolin-6-amine] |
| > 100 | – | CN1CCC(CNc2ccc(CNc3cc(C(=O)O)c4[nH]cc(Cl)c4c3)cn2)CC1 [Example 1204, 3-chloro-5-(((6-(((1-methylpiperidin-4-yl)methyl)amino)pyridin-3-yl)methyl)amino)-1H-indole-7-carboxylic acid] |
| > 100 | – | CN1CCC(CNc2ccc(CNc3cc(C(=O)O)c4cnccc4c3)cn2)CC1 [Example 1203, 6-(((6-(((1-methylpiperidin-4-yl)methyl)amino)pyridin-3-yl)methyl)amino)isoquinoline-8-carboxylic acid] |
| > 40 | – | CN1CCC(CNc2ccc(CNc3ccnc4c3CC(C)(C)N4)cn2)CC1 [Example 1257, 2,2-dimethyl-N-((6-(((1-methylpiperidin-4-yl)methyl)amino)pyridin-3-yl)methyl)-2,3-dihydro-1H-pyrrolo[2,3-b]pyridin-4-amine] |
